Test results reported in patent US10433545B2, “Non-streaking durable composition for cleaning and disinfecting hard surfaces” (Ecolab USA Inc., priority 2016, dated 2019).

Experiments:
feline calicivirus = assay: FCV (feline calicivirus, norovirus surrogate) log reduction; format: cell-based; conditions: surfactant combined with Bardac 2050 quat
Protocol: Variations of this formula were then tested against feline calicivirus, which is norovirus surrogate. Bardac 2050 by itself was the control.
Quat was tested with each surfactant alone to determine which surfactant was interfering. Also, Lonzabac 12 was added to one formula. Streak testing was performed on each formula. FCV (feline calicivirus) testing was done in 400 ppm hard water with a 10 minute contact time and soil.

[1] = list of typical surfactants; CMC measured in water at 20 to 25 degrees C; cited from earlier work
S. aureus = assay: OECD method log reduction, S. aureus; format: cell-based, Staphylococcus aureus; conditions: 400 ppm water; 750 ppm quat
Protocol: The germicidal test methods referred to are those approved by the EPA for germicide registration in force at the time of the patent application. Staphylococcus aureus is the ATCC 6538 strain.
Formulas with passable or ok glass performance and formulas of interest were then tested for antimicrobial efficacy.
Four log reduction is considered passing for this method.

| SMILES | FCV kill, result in words (feline calicivirus) | CMC (ppm) [1] [ppm] | OECD log reduction Staph (S. aureus) [log] |
| --- | --- | --- | --- |
| CCCCC(CC)CO[C@H]1O[C@H](CO)[C@@H](O)[C@H](O)[C@H]1O (stereo partly drawn) [AG 6202, a-D-Glucopyranoside, 2-ethylhexyl] | does not | 14000 |  |
| CCCCCCCCCC[N+](C)(C)CCCCCCCCCC.[Cl-] [Bardac 2250, Didecyldimethylammoniumchloride] |  |  | 1.6 |
| CCCCCCCCCCCC[N+](C)(C)[O-] [Barlox 12, Lauryldimethyl amine oxide] | interferes with FCV kill |  |  |
